The values below come from patent publication US9850300B2, “Compositions and methods relating to inhibiting cancer cell growth and/or proliferation” (The Regents of the University of Michigan, priority 2013, dated 2017).

Entries after “also recorded” stand apart in the source; their conditions may differ.

What all share (type): cell-based
The test system of assay [1] is ALDH+ CSCs in SKOV3 cells. Nature of the assay: ALDH+ cell percentage and number (ALDEFLUOR FACS). As to conditions: Echistatin 100 nM pretreatment 24 hours or EGFL6 antibody 5 μg/ml, then EGFL6. An excerpt: It has been shown that aldehyde dehydrogenase enzymatic activity (ALDH) is an excellent marker of ovarian CSCs in SKOV3 cells and primary patient samples (see, e.g., Silva, I. A., et al. Cancer Res (2011); Landen, C. N., Jr., et al. Mol Cancer Ther 9, 3186-3199 (2010); Steg, A. D., et al. Clin Cancer Res 18, 869-881 (2012); Kryczek, I., et al. Int J Cancer 130, 29-39 (2012); Deng, S., et al. PLoS ONE 5, e10277 (2010)). The impact of EGFL6 treatment on the percentage of ALDH^+ CSCs in vitro was next assessed. […] However, given the increase in total cell numbers, the absolute ALDH^+ CSC number remained unchanged (FIG. 3Aiii). […] Human ovarian cancer ascites cells were also treated with EGFL6 in a tumor sphere assay. Once again, treatment with EGLF6 was associated with a reduction in ALDH^+ cell percentages in tumor spheres (FIG. 3B).
(§1) SKOV3, A2008, and A2780 were maintained in RPMI-1640, supplemented with 10% FBS with 1% Penicillin/Streptomycin, and cultured in humidified atmosphere of 5% CO2 at 37° C. For all in vitro cell culture experiments, isolated cells were allow to recover overnight following FACS, prior to treatment. Infantile Hemangioma Stem cells were maintained in EBM-2 medium with growth factor supplement cocktails in culture plates coated with fibronectin. For Echistatin and EGFL6 treatment, cells were pretreated with Echistatin (Sigma, 100 nM) for 24 hours prior to EGFL6 treatment. All transfections were performed using FuGene6 reagent (Promega) per company protocol.
FACS assay was performed as previously described (see, e.g., Silva, I. A., et al. Cancer Res (2011)). Briefly, SKOV3 cells or primary ovarian tumor/ascetics cells were stained for ALDH using ALDEFLUOR kit per company protocol (Stem Cell Technologies). DAPI staining was used to exclude non-viable cells. For FACS cell sorting, equal number of ALDH and ALDH^(−) cells were collected for subsequent experiments.
EGFL6 monoclonal antibody producing hybridoma cells were maintained in RPMI medium supplemented with 10% FBS. For antibody purification, the cells were cultured in reduced FBS (5%). […]

Assay [2] concerns phosphorylation of SHP2, ERK, FAK and SRC in SKOV3 cells. Nature of the assay: Western blot of EGFL6 mediated signal activation. Conditions: for p-SHP2 levels: treatment of ALDH+ SKOV3 cells. Here is the method:
Lastly, EGFL6 mediated signal activation was evaluated. Integrin signaling has been reported to induce the […] of FAK, SRC and SHP2 among others. […] Phosphorylation of all of these proteins could be blocked with Echistatin.
Cellular signaling changes associated with EGFL6 was next examined. […] EGFL6 treatment was associated with increased p-SHP2 levels specifically in ALDH^+ cells (FIG. 4Ei). […] SHP2 phosphorylation could be blocked with Echistatin (FIG. 4Eiii) or an EGFL6-blocking antibody. SHP2 phosphorylation was associated with increased p-ERK levels (4Ei-iii).
as §1
EGFL6 monoclonal antibody producing hybridoma cells were maintained in RPMI medium supplemented with 10% FBS. For antibody purification, the cells were cultured in reduced FBS (5%). Culture supernatant was collected and cell debris was removed by centrifugation. EGFL6 antibody was pulled down using Protein G Agarose heeds, Fast Flow (Millipore), washed and eluded with 50 mM glycine PH.2.7. Antibody solution was immediately neutralized to PH 7.2-7.4 with Tris (Ph 9.0, final concentration 25 mM). NaCl was added to final concentration of 150 mM. EGFL6 antibody was applied at 5 μg/ml for in vitro cell treatment and 50 μg/mouse for in vivo treatment.

Assay [3] relates to SKOV3 cells. Nature of the assay: EGFL6-mediated cell proliferation, RGE mutation or Echistatin pretreatment. Conditions: for proliferative effect on cancer cells: RGD-to-RGE mutated EGFL6 vs EGFL6, SKOV3. Here is the method:
To determine if EGFL6 signaling on cancer cells is via integrin bind, an EGFL6 protein with an […] mutation (EGFL6^RGE) was generated. […] Similarly, pretreatment of SKOV3 cells with the integrin β1/β3 inhibitor Echistatin blocked both EGFL6-mediated cancer cell proliferation and the decrease in ALDH^+ percentage (FIG. 4B).
as §1

As to Echistatin [reference compound], the “blockade of EGFL6-mediated reduction in ALDH+ cell percentages” value in assay [1] is on record as “inhibited the effect of EGFL6; also recorded: blocked; also recorded: inhibits”. Also, in assay [2] (Echistatin pretreatment), the “blockade of EGFL6-induced phosphorylation of SHP2, FAK and SRC” value was “blocked”. Moreover, in assay [2] (with EGFL6 treatment), the “blockade of EGFL6-mediated ERK phosphorylation” value is “suppressed” and the “blockade of EGFL6-mediated SHP2 phosphorylation” value is recorded as “blocked; also recorded: suppressed”. Also, the “blockade of EGFL6-mediated cancer cell proliferation” value in assay [3] (Echistatin pretreatment, SKOV3) is “blocked”.

B1: EGFL6^RGE: EGFL6 protein with an RGD-to-RGE mutation of the integrin binding motif (protein)
chain: NAASARHHGLLASARQPGVCHYGTKLACCYGWRRNSKGVCEATCEPGCKFGECVGPNKCRCFPGYTGKTCSQDVNECGMKPRPCQHRCVNTHGSYKCFCLSGHMLMPDATCVNSRTCAMINCQYSCEDTEEGPQCLCPSSGLRLAPNGRDCLDIDECASGKVICPYNRRCVNTFGSYYCKCHIGFELQYISGRYDCIDINECTMDSHTCSHHANCFNTQGSFKCKCKQGYKGNGLRCSAIPENSVKEVLRAPGTIKDRIKKLLAHKNSMKKKAKIKNVTPEPTRTPTPKVNLQPFNYEEIVSRGGNSHGGKKGNEEKMKEGLEDEKREEKALKNDIEERSLRGEVFFPKVNEAGEFGLILVQRKALTSKLEHKDLNISVDCSFNHGICDWKQDREDDFDWNPADRDNAIGFYMAVPALAGHKKDIGRLKLLLPDLQPQSNFCLLFDYRLAGDKVGKLRVFVKNSNNALAWEKTTSEDEKWKTGKIQLYQGTDATKSIIFEAERGKGKTGEIAVDGVLLVSGLCPDSLLSVDD
In the case of B1, the values for the p-SHP2 levels entry in assay [2] and in assay [2] (listed as EGFL6-RGE mutant) were “did not increase” and “does not increase”, respectively. Also, the p-ERK levels result in assay [2] (treatment of ALDH+ and ALDH(−) cells) is given as “does not increase”. Also, the “proliferative effect on cancer cells” value in assay [3] is reported as “eliminated the proliferative effects”; in assay [3] (listed as EGFL6-RGE mutant) it was “suppressed”.
